Source: patent US12653800B2, “Small molecule inhibitors of TLR2 signaling” (University of Maryland, Baltimore, priority 2015, dated 2026)

What was measured:
[1] = target: T1, interaction of TLR2 with MyD88 (Homo sapiens, UniProt O60603); experiment: Co-immunoprecipitation of TLR2 with MyD88 in THP-1 cells; type: cell-based; conditions: C29 150 μM, P3C 50 ng/mL, 15 and 30 minutes, statistical significance at 30 minutes
T1 construct: host or cells: THP-1 cells, PMA 20 ng/mL for 24 hrs, P3C-stimulated
T1 sequence (O60603 21-784): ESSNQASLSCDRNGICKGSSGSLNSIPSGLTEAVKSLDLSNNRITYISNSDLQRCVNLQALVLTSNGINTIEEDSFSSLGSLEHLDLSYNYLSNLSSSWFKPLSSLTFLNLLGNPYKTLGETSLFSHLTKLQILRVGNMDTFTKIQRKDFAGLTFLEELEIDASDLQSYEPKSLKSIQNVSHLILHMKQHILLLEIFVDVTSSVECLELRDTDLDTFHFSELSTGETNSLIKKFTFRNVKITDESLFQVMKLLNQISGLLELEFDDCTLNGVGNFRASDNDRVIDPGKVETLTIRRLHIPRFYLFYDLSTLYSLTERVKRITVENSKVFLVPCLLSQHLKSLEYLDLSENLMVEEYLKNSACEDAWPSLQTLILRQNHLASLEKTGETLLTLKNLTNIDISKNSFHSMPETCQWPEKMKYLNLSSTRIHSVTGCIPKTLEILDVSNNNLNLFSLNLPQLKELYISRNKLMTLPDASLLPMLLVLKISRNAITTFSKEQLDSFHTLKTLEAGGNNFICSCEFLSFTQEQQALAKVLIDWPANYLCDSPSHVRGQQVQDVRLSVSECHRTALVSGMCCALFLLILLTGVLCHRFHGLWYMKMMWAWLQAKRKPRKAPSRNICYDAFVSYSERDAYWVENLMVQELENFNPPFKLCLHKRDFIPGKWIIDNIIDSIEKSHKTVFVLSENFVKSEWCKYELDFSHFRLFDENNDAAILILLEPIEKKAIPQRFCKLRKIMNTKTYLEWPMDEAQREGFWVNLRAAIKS
Procedure: FIG. 2. C29 inhibits ligand-induced interaction of TLR2 with MyD88 and blocks MAPK and NF-κβ activation. (A) THP-1 cells were cultured in the presence of PMA (20 ng/mL) for 24 hrs and washed twice in media. THP-1 human monocytes were pretreated with media, vehicle (195 μM NaOH), or C29 (150 μM) for 1 hr and treated with P3C (50 ng/mL) in the presence of media, vehicle, or C29 for 15 or 30 min. Co-immunoprecipitation (IP) was carried out using anti-MyD88 antibody and Western analysis (IB) using whole cell lysates. (B) Densitometry analysis (mean±SEM) of 3 independent experiments as shown in (A). (C) Murine peritoneal macrophages were pretreated for 1 hr with media, vehicle (65 μM NaOH), or C29 (50 μM) and treated with P3C (50 ng/mL) for 5-30 min in the presence of media, vehicle, or C29. IB was performed using whole cell lysates and antibodies directed against the signaling intermediates indicated. β-actin was probed as a loading protein. […]
Cells were treated and washed once with 1×PBS and lysed using buffer containing 20 mM HEPES (pH 7.4), 150 mM NaCl, 1 mM EDTA, 1 mM EGTA (pH 8.0), 50 mM NaF, 0.5% Triton X-100, 1 mM Na3VO4, 1 mM DTT, 1 mM PMSF, and protease inhibitor (Roche Applied Science, Indianapolis, IN). Cells were harvested and protein was quantified using BCA Protein assay reagents (Thermo Scientific/Pierce, Rockford, IL). […]

[2] = tested on: MAPK and NF-κβ activation; experiment: Western analysis of MAPK and NF-κβ activation in murine peritoneal macrophages; type: cell-based; conditions: C29 50 μM, P3C 50 ng/mL
Procedure: FIG. 2. C29 inhibits ligand-induced interaction of TLR2 with MyD88 and blocks MAPK and NF-κβ activation. (A) THP-1 cells were cultured in the presence of PMA (20 ng/mL) for 24 hrs and washed twice in media. THP-1 human monocytes were pretreated with media, vehicle (195 μM NaOH), or C29 (150 μM) for 1 hr and treated with P3C (50 ng/mL) in the presence of media, vehicle, or C29 for 15 or 30 min. Co-immunoprecipitation (IP) was carried out using anti-MyD88 antibody and Western analysis (IB) using whole cell lysates. (B) Densitometry analysis (mean±SEM) of 3 independent experiments as shown in (A). (C) Murine peritoneal macrophages were pretreated for 1 hr with media, vehicle (65 μM NaOH), or C29 (50 μM) and treated with P3C (50 ng/mL) for 5-30 min in the presence of media, vehicle, or C29. IB was performed using whole cell lysates and antibodies directed against the signaling intermediates indicated. β-actin was probed as a loading protein. Panel A is representative of 3 independent experiments and panel B is the mean±SEM from 3 independent experiments (*, p≤0.05). Panel B is representative of 2 independent experiments.
Cells were treated and washed once with 1×PBS and lysed using buffer containing 20 mM HEPES (pH 7.4), 150 mM NaCl, 1 mM EDTA, 1 mM EGTA (pH 8.0), 50 mM NaF, 0.5% Triton X-100, 1 mM Na3VO4, 1 mM DTT, 1 mM PMSF, and protease inhibitor (Roche Applied Science, Indianapolis, IN). Cells were harvested and protein was quantified using BCA Protein assay reagents (Thermo Scientific/Pierce, Rockford, IL). Whole cell lysates (500 μg/500 μL) were precleared using 10 μL of pre-washed Protein G Agarose (Roche Applied Science, Indianapolis, IN) for 2 hours at 4° C. with rotation. Precleared samples were incubated with the respective antibody and rotated overnight at 4° C. Pre-washed Protein G (40 μL) was added to each sample and rotated for 4 h at 4° C. Beads were washed three times in lysis buffer (without protease inhibitor) and finally in complete lysis buffer. Beads were resuspended in 2× Laemmli Sample Buffer and boiled for 10 min. […]

[3] = tested on: MyD88-independent pathway; experiment: IFN-β mRNA in murine macrophages stimulated with agonists that induce IFN-β; type: cell-based; conditions: C29 50 μM, 3 hrs
Procedure: FIG. 10. Examining the broader specificity of C29 for TLR2 signaling. (A, B) Total RNA was extracted from murine macrophages that had been pretreated for 1 hr with vehicle (65 μM NaOH) or C29 (50 μM) and then stimulated with P3C (50 ng/mL), P2C (100 ng/mL), zymosan (10 μg/mL), S. aureus LTA (1 μg/mL), poly(I:C) (10 μg/mL), LPS (100 ng/mL), R848 (10 μg/mL), or CpG ODN 1668 (5 μM) for 3 hrs in the presence of vehicle or C29. IL-1β and IFN-β mRNA were measured as described in FIG. 1, panel D. (C) THP-1 cells were plated in the presence of PMA (20 ng/mL) for 24 hrs and washed twice in media. Total RNA was extracted from cell cultures pretreated for 1 hr with vehicle (260 μM NaOH) or C29 (50 μM, 100 μM, or 200 μM) and then stimulated with zymosan (10 μg/mL) or S. aureus LTA (1 μg/mL) for 4 hrs in the presence of vehicle or C29. IL-1β mRNA was measured as described in FIG. 1, panel B. Quantitative real-time results represent the mean±SEM from 2 independent experiments each carried out in duplicate (*, p≤0.05; **, p≤0.01; ***, p≤0.001).
Cytokine gene expression was measured by qRT-PCR with transcript-specific primers using SYBR Green in the ABI Prism 7900 Fast Real Time PCR system (Applied Biosystems, Foster City, CA) as described (Cole L E, et al. (2006) Journal of immunology 176(11):6888-6899). […]

TLR2 = TLR2 (Homo sapiens, UniProt O60603); type: cell-based; conditions: HEK-TLR2 cells, C29 50 μM
TLR2, sequence (O60603 21-784 limits assumed): as the sequence (O60603 21-784) above

TNF-α-induced signaling = experiment: hTNF-α-induced IL-8 mRNA in HEK-TLR2 stable transfectants; type: cell-based, human; conditions: C29 10 μM or 50 μM, hTNF-α 300 ng/mL 1 hr
TLR2/6 = TLR2/6 (Homo sapiens, UniProt O60603); experiment: IL-1β mRNA in THP-1 cells stimulated with TLR2/6 agonists (P2C, zymosan); type: cell-based; design: expressed in transfected cells; conditions: C29 50, 100 or 200 μM
TLR2/6, sequence (O60603 21-784): as above

TLR2/1 = TLR2/1 (Homo sapiens, UniProt O60603); experiment: IL-1β mRNA in THP-1 cells stimulated with TLR2/1 agonists (P3C, S. aureus LTA); type: cell-based; design: expressed in transfected cells; conditions: C29 50, 100 or 200 μM
TLR2/1, sequence (O60603 21-784): as above

## COc1cccc(/C=N/c2cccc(C(=O)O)c2C)c1O [Compound C29]
[1]
  interaction between endogenous TLR2 and MyD88 (co-IP): diminished the interaction
[2]; 5 to 30 min
  P3C-induced NF-κβ activation: reduced NF-κβ activation
[2]; 15 and 30 min
  P3C-induced degradation of IκBα: prevented P3C-induced degradation of IκBα
[2]; 30 min
  P3C-induced MAPK activation: blocked robust MAPK activation
[3]
  IFN-β mRNA (MyD88-independent pathway): no significant inhibitory effect
TLR2; LVS MOI=10, 4 hrs, TLR2/6 agonist
  live F. tularensis-induced IL-8 mRNA: significantly inhibited
TLR2; MOI=50, 4 hrs
  heat-killed Ps. aeruginosa (HKPA)-induced IL-8 mRNA: significantly inhibited
  heat-killed S. aureus (HKSA)-induced IL-8 mRNA: significantly inhibited
TNF-α-induced signaling
  TNF-α-induced signaling (IL-8 mRNA): no effect
TLR2/6; P2C 50 ng/mL, 1 h and 4 h
  P2C-induced IL-1β gene expression: inhibited P3C- and P2C-induced IL-1β gene expression significantly
TLR2/6; zymosan 10 μg/mL 4 hrs
  zymosan-induced IL-1β mRNA: blocked zymosan- and LTA SA-induced IL-1β mRNA dose-dependently
TLR2/1; P3C 50 ng/mL, 1 h and 4 h
  P3C-induced IL-1β gene expression: inhibited P3C- and P2C-induced IL-1β gene expression significantly
TLR2/1; S. aureus LTA 1 μg/mL 4 hrs
  LTA SA-induced IL-1β mRNA: blocked zymosan- and LTA SA-induced IL-1β mRNA dose-dependently
